This passage reports IC50 and EC50 results from US20240116946A1 (Gilead Sciences, Inc., priority 2022, published 2024).

Where two headings read alike, the source gives them in different places.

For test [1], the target named is recombinant SARS-CoV-2 Main protease (Mpro) (Severe acute respiratory syndrome coronavirus 2 (2019-nCoV) (SARS-CoV-2), UniProt P0DTD1). In words: Cov Mpro Biochemical IC50 Assay. As to conditions: fluorogenic peptide substrate 40 μM.
Another test has as its system SARS-CoV-2-NLuc. In words: microbe, parasite or virus in culture. As to conditions: read-out: MPro EC50. It counts as cell-based, SARS Coronavirus 2.
[2] abbreviates: recombinant SARS-CoV-2 Mpro 7.5 nM, read-out: MPro IC50.
Setting [3] is: MPro IC50, recombinant SARS-CoV-2 Mpro 7.5 nM.

The IC50 is the concentration at which inhibition is half-maximal. Usually EC50 stands for the concentration at which the effect is half-maximal. For `N#CCCn1c(=O)n(-c2cncc3ccccc23)c(=O)c2sc(-c3ccccc3C#N)cc21` (single isomer, unassigned) [Example 964, 2-(1-(2-cyanoethyl)-3-(isoquinolin-4-yl)-2,4-dioxo-1,2,3,4-tetrahydrothieno[3,2-d]pyrimidin-6-yl)benzonitrile], the half-maximal inhibitory concentration (IC50) in test [1] (setting [2]) was 62.5 nM. Moreover, in the test on SARS-CoV-2-NLuc, the half-maximal effective concentration (EC50) turned out to be 87 nM.

In the case of `Cc1nc2cncc(-n3c(=O)c4sc(-c5ccc(F)cc5Cl)cc4n(CCC#N)c3=O)c2n1C` (single isomer, unassigned) [Example 965, 3-(6-(2-chloro-4-fluorophenyl)-3-(1,2-dimethyl-1H-imidazo[4,5-c]pyridin-7-yl)-2,4-dioxo-3,4-dihydrothieno[3,2-d]pyrimidin-1(2H)-yl)propanenitrile], the IC50 in test [1] (setting [2]) came out at 20.1 nM. Moreover, the concentration giving a half-maximal response (EC50) with SARS-CoV-2-NLuc was found to be 78.3 nM.

`Cc1nc2cncc(-n3c(=O)c4sc(-c5ccc(F)cc5Cl)cc4n(CCC#N)c3=O)c2n1C` (single isomer, unassigned) [Example 966, 3-(6-(2-chloro-4-fluorophenyl)-3-(1,2-dimethyl-1H-imidazo[4,5-c]pyridin-7-yl)-2,4-dioxo-3,4-dihydrothieno[3,2-d]pyrimidin-1(2H)-yl)propanenitrile]: the half-inhibitory concentration (IC50) in test [1] (setting [2]) turned out to be 309 nM. The EC50 with SARS-CoV-2-NLuc was over 1000 nM.

In the case of `COc1cc(-c2cc3c(s2)c(=O)n(-c2cncc4ccccc24)c(=O)n3CCC#N)c(C#N)cc1F` (single isomer, unassigned) [Example 967, 2-(1-(2-cyanoethyl)-3-(isoquinolin-4-yl)-2,4-dioxo-1,2,3,4-tetrahydrothieno[3,2-d]pyrimidin-6-yl)-5-fluoro-4-methoxybenzonitrile], in test [1] (setting [2]), the concentration for half-maximal inhibition (IC50) came out at 1.82 nM. In the test on SARS-CoV-2-NLuc, the 50% effective concentration (EC50) came out at 1.83 nM.

For the compound `COc1cc(-c2cc3c(s2)c(=O)n(-c2cncc4ccccc24)c(=O)n3CCC#N)c(C#N)cc1F` (single isomer, unassigned) [Example 968, 2-(1-(2-cyanoethyl)-3-(isoquinolin-4-yl)-2,4-dioxo-1,2,3,4-tetrahydrothieno[3,2-d]pyrimidin-6-yl)-5-fluoro-4-methoxybenzonitrile], the IC50 in test [1] (setting [2]) came to 89.1 nM. In the test on SARS-CoV-2-NLuc, the EC50 stood at 96 nM.

As to `COc1cc(-c2cc3c(s2)c(=O)n(-c2cncc4nc(C)n(C)c24)c(=O)n3CCC#N)c(Cl)cc1F` (single isomer, unassigned) [Example 969, 3-(6-(2-chloro-4-fluoro-5-methoxyphenyl)-3-(1,2-dimethyl-1H-imidazo[4,5-c]pyridin-7-yl)-2,4-dioxo-3,4-dihydrothieno[3,2-d]pyrimidin-1(2H)-yl)propanenitrile], the 50% inhibitory concentration (IC50) in test [1] (setting [2]) is over 1000 nM. Besides, the half-maximal effective concentration (EC50) with SARS-CoV-2-NLuc was over 1000 nM.

Consider `COc1cc(-c2cc3c(s2)c(=O)n(-c2cncc4nc(C)n(C)c24)c(=O)n3CCC#N)c(Cl)cc1F` (single isomer, unassigned) [Example 970, 3-(6-(2-chloro-4-fluoro-5-methoxyphenyl)-3-(1,2-dimethyl-1H-imidazo[4,5-c]pyridin-7-yl)-2,4-dioxo-3,4-dihydrothieno[3,2-d]pyrimidin-1(2H)-yl)propanenitrile], for which the IC50 in test [1] (setting [2]) turned out to be 3.96 nM. The EC50 in the test with SARS-CoV-2-NLuc was 18.9 nM.

Turning to `Cc1c2c(-n3c(=O)c4sc(-c5ccc(F)cc5Cl)cc4n(CCC#N)c3=O)cncc2nn1C` (single isomer, unassigned) [Example 971, 3-(6-(2-chloro-4-fluorophenyl)-3-(2,3-dimethyl-2H-pyrazolo[3,4-c]pyridin-4-yl)-2,4-dioxo-3,4-dihydrothieno[3,2-d]pyrimidin-1(2H)-yl)propanenitrile], in test [1] (setting [2]), the IC50 worked out at 13 nM. Further, in the test with SARS-CoV-2-NLuc, the EC50 was found to be 55.8 nM.

`Cc1c2c(-n3c(=O)c4sc(-c5ccc(F)cc5Cl)cc4n(CCC#N)c3=O)cncc2nn1C` (single isomer, unassigned) [Example 972, 3-(6-(2-chloro-4-fluorophenyl)-3-(2,3-dimethyl-2H-pyrazolo[3,4-c]pyridin-4-yl)-2,4-dioxo-3,4-dihydrothieno[3,2-d]pyrimidin-1(2H)-yl)propanenitrile]: the IC50 in test [1] (setting [2]) is over 1000 nM. The EC50 with SARS-CoV-2-NLuc is over 1000 nM.

With `COc1cc(-c2cc3c(s2)c(=O)n(-c2cncc4nc(C(F)(F)F)n(C)c24)c(=O)n3CCC#N)c(Cl)cc1F` (single isomer, unassigned) [Example 973, 3-(6-(2-chloro-4-fluoro-5-methoxyphenyl)-3-(1-methyl-2-(trifluoromethyl)-1H-imidazo[4,5-c]pyridin-7-yl)-2,4-dioxo-3,4-dihydrothieno[3,2-d]pyrimidin-1(2H)-yl)propanenitrile], the IC50 in test [1] (setting [2]) turned out to be 6.68 nM. For the same compound, in the test on SARS-CoV-2-NLuc, the concentration for a half-maximal effect (EC50) amounted to 14.7 nM.

`COc1cc(-c2cc3c(s2)c(=O)n(-c2cncc4nc(C(F)(F)F)n(C)c24)c(=O)n3CCC#N)c(Cl)cc1F` (single isomer, unassigned) [Example 974, 3-(6-(2-chloro-4-fluoro-5-methoxyphenyl)-3-(1-methyl-2-(trifluoromethyl)-1H-imidazo[4,5-c]pyridin-7-yl)-2,4-dioxo-3,4-dihydrothieno[3,2-d]pyrimidin-1(2H)-yl)propanenitrile]: the IC50 in test [1] (setting [2]) was 242 nM. In addition, the EC50 in the test on SARS-CoV-2-NLuc stood at 602 nM.

For the compound `COc1cc(-c2cc3[nH]c(=O)n(-c4cncc5cccc(C)c45)c(=O)c3s2)c(Cl)cc1F` (single isomer, unassigned) [Example 995, 6-(2-chloro-4-fluoro-5-methoxyphenyl)-3-(5-methylisoquinolin-4-yl)thieno[3,2-d]pyrimidine-2,4(1H,3H)-dione], the half-maximal inhibitory concentration (IC50) in test [1] (setting [2]) is 3.27 nM. Moreover, in the test on SARS-CoV-2-NLuc, the EC50 amounted to 1.26 nM.

For `COc1cc(-c2cc3[nH]c(=O)n(-c4cncc5cccc(C)c45)c(=O)c3s2)c(Cl)cc1F` (single isomer, unassigned) [Example 996, 6-(2-chloro-4-fluoro-5-methoxyphenyl)-3-(5-methylisoquinolin-4-yl)thieno[3,2-d]pyrimidine-2,4(1H,3H)-dione], in test [1] (setting [2]), the IC50 is 6390 nM. In addition, the EC50 in the test on SARS-CoV-2-NLuc stood at 1530 nM.

As for `COc1cc(-c2cc3c(s2)c(=O)n(-c2cncc4cnn(C)c24)c(=O)n3CCC#N)c(C#N)cc1F` (single isomer, unassigned) [Example 1003, 2-[1-(2-cyanoethyl)-3-(1-methylpyrazolo[4,3-c]pyridin-7-yl)-2,4-dioxo-thieno[3,2-d]pyrimidin-6-yl]-5-fluoro-4-methoxy-benzonitrile], in test [1] (setting [2]), the IC50 was determined as 2.83 nM. Moreover, the EC50 with SARS-CoV-2-NLuc is 5.66 nM.

With `COc1cc(-c2cc3c(s2)c(=O)n(-c2cncc4cnn(C)c24)c(=O)n3CCC#N)c(C#N)cc1F` (single isomer, unassigned) [Example 1004, 2-[1-(2-cyanoethyl)-3-(1-methylpyrazolo[4,3-c]pyridin-7-yl)-2,4-dioxo-thieno[3,2-d]pyrimidin-6-yl]-5-fluoro-4-methoxy-benzonitrile], the IC50 in test [1] (setting [2]) came to 71.5 nM. The EC50 in the test on SARS-CoV-2-NLuc came to 112 nM.

In the case of `COc1cc(-c2cc3[nH]c(=O)n(-c4cncc5ccccc45)c(=O)c3cc2F)c(Cl)cc1F` (single isomer, unassigned) [Example 1006, 7-(2-chloro-4-fluoro-5-methoxy-phenyl)-6-fluoro-3-(4-isoquinolyl)-1H-quinazoline-2,4-dione], the IC50 in test [1] (setting [3]) was found to be 23.8 nM. The 50% effective concentration (EC50) in the test on SARS-CoV-2-NLuc is 9.33 nM.

In the case of `COc1cc(-c2cc3[nH]c(=O)n(-c4cncc5ccccc45)c(=O)c3cc2F)c(Cl)cc1F` (single isomer, unassigned) [Example 1007, 7-(2-chloro-4-fluoro-5-methoxy-phenyl)-6-fluoro-3-(4-isoquinolyl)-1H-quinazoline-2,4-dione], in test [1] (setting [3]), the IC50 amounted to 331 nM. Further, in the test with SARS-CoV-2-NLuc, the concentration giving a half-maximal response (EC50) was 301 nM.

Consider `COc1cc(-c2cc3[nH]c(=O)n(-c4cncc5cccnc45)c(=O)c3s2)c(Cl)cc1F` (single isomer, unassigned) [Example 1008, 6-(2-chloro-4-fluoro-5-methoxy-phenyl)-3-(1,6-naphthyridin-8-yl)-1H-thieno[3,2-d]pyrimidine-2,4-dione], for which, in test [1] (setting [2]), the concentration for half-maximal inhibition (IC50) was determined as 128 nM. In the test with SARS-CoV-2-NLuc, the concentration giving a half-maximal response (EC50) came to 138 nM.

As to `COc1cc(-c2cc3[nH]c(=O)n(-c4cncc5cccnc45)c(=O)c3s2)c(Cl)cc1F` (single isomer, unassigned) [Example 1009, 6-(2-chloro-4-fluoro-5-methoxy-phenyl)-3-(1,6-naphthyridin-8-yl)-1H-thieno[3,2-d]pyrimidine-2,4-dione], in test [1] (setting [2]), the IC50 amounted to 3.99 nM. For the same compound, the 50% effective concentration (EC50) with SARS-CoV-2-NLuc turned out to be 3.96 nM.

Regarding `COc1cc(-c2cc3c(s2)c(=O)n(-c2cncc4cnn(C)c24)c(=O)n3CC#N)c(Cl)cc1F` (single isomer, unassigned) [Example 1012, 2-[6-(2-chloro-4-fluoro-5-methoxy-phenyl)-3-(1-methylpyrazolo[4,3-c]pyridin-7-yl)-2,4-dioxo-thieno[3,2-d]pyrimidin-1-yl]acetonitrile], the IC50 in test [1] (setting [2]) came to 1.99 nM. For the same compound, the EC50 with SARS-CoV-2-NLuc came to 3.19 nM.

In the case of `COc1cc(-c2cc3c(s2)c(=O)n(-c2cncc4cnn(C)c24)c(=O)n3CC#N)c(Cl)cc1F` (single isomer, unassigned) [Example 1013, 2-[6-(2-chloro-4-fluoro-5-methoxy-phenyl)-3-(1-methylpyrazolo[4,3-c]pyridin-7-yl)-2,4-dioxo-thieno[3,2-d]pyrimidin-1-yl]acetonitrile], the concentration for half-maximal inhibition (IC50) in test [1] (setting [2]) was 1.42 nM. The concentration giving a half-maximal response (EC50) in the test on SARS-CoV-2-NLuc was 16.5 nM.

On to `COc1cc(-c2cc3c(s2)c(=O)n(-c2cncc(F)c2C)c(=O)n3CCC#N)c(Cl)cc1F` (single isomer, unassigned) [Example 1026, 3-[6-(2-chloro-4-fluoro-5-methoxy-phenyl)-3-(5-fluoro-4-methyl-3-pyridyl)-2,4-dioxo-thieno[3,2-d]pyrimidin-1-yl]propanenitrile], for which the concentration for half-maximal inhibition (IC50) in test [1] (setting [2]) was 3.08 nM. In the test on SARS-CoV-2-NLuc, the EC50 is 5.44 nM.

As to `COc1cc(-c2cc3c(s2)c(=O)n(-c2cncc(F)c2C)c(=O)n3CCC#N)c(Cl)cc1F` (single isomer, unassigned) [Example 1027, 3-[6-(2-chloro-4-fluoro-5-methoxy-phenyl)-3-(5-fluoro-4-methyl-3-pyridyl)-2,4-dioxo-thieno[3,2-d]pyrimidin-1-yl]propanenitrile], the IC50 in test [1] (setting [2]) stood at 61.9 nM. Also, the concentration for a half-maximal effect (EC50) in the test with SARS-CoV-2-NLuc was determined as 66.1 nM.
